In one assay the test system is S. aureus ATCC 29213. Briefly: Minimum inhibitory concentration (MIC) assay, broth microdilution, MSSA. It counts as cell-based. As to conditions: Staphylococcus aureus, Table I. Here is the method:
(§1) The antimicrobial activity of the compounds of the invention may be evaluated by a number of methods, including the following visual minimum inhibitory concentration (MIC) assay. This assay determines the minimum concentration of compound required to inhibit growth of a bacterial strain.
(§2) Whole-cell antibacterial activity is determined by broth microdilution using conditions recommended by the NCCLS (see National Committee for Clinical Laboratory Standards. 2001. Performance standards for antimicrobial susceptibility testing: 11th informational supplement. Vol. 21, no. 1, M100-S11. National Committee for Clinical Laboratory Standards, Wayne, Pa.). Test compounds are dissolved in DMSO and diluted 1:50 in Mueller-Hinton II broth (Becton-Dickinson) to produce a 256 μg/ml stock solution. In a 96-well microtiter plate, the compound solution is serially two-fold diluted in Mueller-Hinton II broth. After the compounds are diluted, a 50 μl aliquot of the test organism (˜1×10^6 cfu/mL) is added to each well of the microtiter plate. The final test concentrations ranges from 0.125-128 μg/mL. Inoculated plates are incubated in ambient air at 37° C. for 18 to 24 hours. The organisms selected for testing included laboratory strains S. aureus ATCC 29213 and E. coli ATCC 25922 (strains purchased from American Type Culture Collection, Manassas, Va.) m, S. aureus FQR700699, and Paeruginosa 27853. The minimum inhibitory concentration (MIC) is determined as the lowest concentration of compound that inhibited visible growth of the test organism.
Background: Broth dilution looks for growth in wells or tubes with falling amounts of substance.

In assay [1] the test system is fluoroquinolone-resistant S. aureus ATCC 700699. Description: Minimum inhibitory concentration (MIC) assay, broth microdilution, MRSA. Conditions: Staphylococcus aureus; fluoroquinolone-resistant S. aureus ATCC 700699; Table I; read-out: MRSA MIC. It counts as cell-based. On the procedure: as §1, §2

Among the data in patent US8173636B2, “Hydroxylthienoquinolones and related compounds as anti-infective agents” (Achillion Pharmaceuticals, Inc., priority 2009, dated 2012) are MIC values, retold here.

≈ marks a conversion by molar mass, not a printed value.

For the molecule `COc1c(N2CC[C@@H]([C@H](C)NCCF)C2)c(F)cc2c(=O)c3c(O)c(C#N)sc3n(C3CC3)c12` [Cmp 1, 9-cyclopropyl-6-fluoro-7-((R)-3-((S)-1-(2-fluoroethylamino)ethyl)pyrrolidin-1-yl)-3-hydroxyl-8-methoxy-4-oxo-4,9-dihydrothieno[2,3-b]quinoline-2-carbonitrile], the MIC (as a rule, the least concentration at which growth counts as inhibited) in the assay on S. aureus ATCC 29213 worked out at 0.02 µg/mL (≈ 0.0409 µM); in assay [1] it was 0.13 µg/mL (≈ 0.266 µM). The matching figures for `COc1c(N2CC[C@@H](C(C)(C)N)C2)ccc2c(=O)c3c(O)c(C#N)sc3n(C3CC3)c12` [Cmp 2, (R)-7-(3-(2-aminopropan-2-yl)pyrrolidin-1-yl)-9-cyclopropyl-3-hydroxyl-8-methoxy-4-oxo-4,9-dihydrothieno[2,3-b]quinoline-2-carbonitrile]: 0.06 µg/mL (≈ 0.137 µM) and 0.42 µg/mL (≈ 0.958 µM). The corresponding values for `N#Cc1sc2c(c1O)c(=O)c1cc(F)c(N3CCNCC3)c(OC(F)F)c1n2C1CC1` [Cmp 3, 9-cyclopropyl-8-(difluoromethoxy)-6-fluoro-3-hydroxyl-4-oxo-7-(piperazin-1-yl)-4,9-dihydrothieno[2,3-b]quinoline-2-carbonitrile] are 0.25 µg/mL (≈ 0.555 µM) and 4 µg/mL (≈ 8.88 µM). The corresponding values for `COc1c(-c2ccnc(C)c2)c(F)cc2c(=O)c3c(O)c(C#N)sc3n(C3CC3)c12` [Cmp 4, 9-cyclopropyl-6-fluoro-3-hydroxyl-8-methoxy-7-(2-methylpyridin-4-yl)-4-oxo-4,9-dihydrothieno[2,3-b]quinoline-2-carbonitrile] are 0.02 µg/mL (≈ 0.0475 µM) and 0.13 µg/mL (≈ 0.308 µM). Take `COC(=O)c1sc2c(c1O)c(=O)c1cc(F)c(N3CC[C@@H](C(C)(C)N)C3)c(OC)c1n2C1CC1` [Cmp 5, (R)-methyl 7-(3-(2-aminopropan-2-yl)pyrrolidin-1-yl)-9-cyclopropyl-6-fluoro-3-hydroxyl-8-methoxy-4-oxo-4,9-dihydrothieno [2,3-b]quinoline-2-carboxylate]: the results for the MIC (against S. aureus ATCC 29213; in assay [1]) were 2 µg/mL (≈ 4.09 µM) and 64 µg/mL (≈ 131 µM), respectively. The matching figures for `COc1c(N2CC[C@@H](C(C)(C)N)C2)c(F)cc2c(=O)c3c(O)csc3n(C3CC3)c12` [Cmp 6, (R)-7-(3-(2-aminopropan-2-yl)pyrrolidin-1-yl)-9-cyclopropyl-6-fluoro-3-hydroxyl-8-methoxythieno[2,3-b]quinolin-4(9H)-one]: 2 µg/mL (≈ 4.63 µM) and 32 µg/mL (≈ 74.2 µM).

Turning to `COC(=O)c1sc2c(c1O)c(=O)c1cc(F)c(N3CCNCC3)c(OC)c1n2C1CC1` [Cmp 7, methyl 9-cyclopropyl-6-fluoro-3-hydroxyl-8-methoxy-4-oxo-7-(piperazin-1-yl)-4,9-dihydrothieno[2,3-b] quinoline-2-carboxylate], the MIC against S. aureus ATCC 29213 came to 3 µg/mL (≈ 6.7 µM); in assay [1], 32 µg/mL (≈ 71.5 µM). The matching figures for `COc1c(N2CCNCC2)c(F)cc2c(=O)c3c(O)csc3n(C3CC3)c12` [Cmp 8, 9-cyclopropyl-6-fluoro-3-hydroxyl-8-methoxy-7-(piperazin-1-yl)thieno[2,3-b]quinolin-4(9H)-one]: 32 µg/mL (≈ 82.2 µM) and greater than 64 µg/mL.

On to `COc1c(N2CCNCC2)c(F)cc2c(=O)c3c(O)c(C#N)sc3n(C3CC3)c12` [Cmp 9, 9-cyclopropyl-6-fluoro-3-hydroxyl-8-methoxy-4-oxo-7-(piperazin-1-yl)-4,9-dihydrothieno[2,3-b]quinoline-2-carbonitrile], for which the MIC is 0.06 µg/mL (≈ 0.145 µM) against S. aureus ATCC 29213 and 0.75 µg/mL (≈ 1.81 µM) in assay [1]. The corresponding values for `COc1c(N2CC[C@@H](C(C)(C)N)C2)c(F)cc2c(=O)c3c(O)c(C#N)sc3n(C3CC3)c12` [Cmp 10, (R)-7-(3-(2-aminopropan-2-yl)pyrrolidin-1-yl)-9-cyclopropyl-6-fluoro-3-hydroxyl-8-methoxy-4-oxo-4,9-dihydrothieno [2,3-b]quinoline-2-carbonitrile] are 0.02 µg/mL (≈ 0.0438 µM) and 0.094 µg/mL (≈ 0.206 µM).

`COc1c(N2CC[C@@H]([C@H](C)N)C2)c(F)cc2c(=O)c3c(O)c(C#N)sc3n(C3CC3)c12` [Cmp 11, 7-((R)-3-((S)-1-aminoethyl)pyrrolidin-1-yl)-9-cyclopropyl-6-fluoro-3-hydroxyl-8-methoxy-4-oxo-4,9-dihydrothieno[2,3-b] quinoline-2-carbonitrile]: the results for the MIC (against S. aureus ATCC 29213; in assay [1]) were 0.02 µg/mL (≈ 0.0452 µM) and 0.094 µg/mL (≈ 0.212 µM), respectively. Take `COc1c(N2CCNCC2)c(F)cc2c(=O)c3c(O)c(C(=O)C(C)(C)C)sc3n(C3CC3)c12` [Cmp 12, 9-cyclopropyl-6-fluoro-3-hydroxyl-8-methoxy-7-(piperazin-1-yl)-2-pivaloylthieno[2,3-b]quinolin 4(9H)-one]: the MIC (against S. aureus ATCC 29213; in assay [1]) was 8 µg/mL (≈ 16.9 µM) throughout. `COc1c(N2CC[C@@H](C(C)(C)N)C2)c(F)cc2c(=O)c3c(O)c([N+](=O)[O-])sc3n(C3CC3)c12` [Cmp 13, (R)-7-(3-(2-aminopropan-2-yl)pyrrolidin-1-yl)-9-cyclopropyl-6-fluoro-3-hydroxyl-8-methoxy-2-nitrothieno[2,3-b] quinolin-4(9H)-one]: the values for the MIC (in the assay with S. aureus ATCC 29213; in assay [1]) were 8 µg/mL (≈ 16.8 µM) and 32 µg/mL (≈ 67.2 µM), respectively.

As for `COc1c(N2CCNCC2)c(F)cc2c(=O)c3c(O)c(S(=O)(=O)c4ccccc4)sc3n(C3CC3)c12` [Cmp 14, 9-cyclopropyl-6-fluoro-3-hydroxyl-8-methoxy-2-(phenylsulfonyl)-methoxy-2-7-(piperazin-1-yl)thieno[2,3-b]quinolin-4(9H)-one], the MIC in the assay with S. aureus ATCC 29213 was 1 µg/mL (≈ 1.89 µM); in assay [1] it was 16 µg/mL (≈ 30.2 µM). The corresponding values for `COc1c(N2CCNCC2)c(F)cc2c(=O)c3c(O)c(-c4ccc(F)c(F)c4)sc3n(C3CC3)c12` [Cmp 15, 9-cyclopropyl-2-(3,4-difluorophenyl)-6-fluoro-3-hydroxyl-8-methoxy-7-(piperazin-1-yl)thieno[2,3-b]quinolin-4(9H)-one] are 8 µg/mL (≈ 16 µM) and 4 µg/mL (≈ 7.98 µM). The corresponding values for `N#Cc1sc2c(c1O)c(=O)c1ccc(N3CCNCC3)c(OC(F)F)c1n2C1CC1` [Cmp 16, 9-cyclopropyl-8-(difluoromethoxy)-3-hydroxyl-4-oxo-7-(piperazin-l-yl)-4,9-dihydrothieno[2,3-b]quinoline-2-carbonitrile] are 4 µg/mL (≈ 9.25 µM) and 64 µg/mL (≈ 148 µM). The matching figures for `CN(C)c1ccc2c(=O)c3c(O)c(C#N)sc3n(C3CC3)c2c1OC(F)F` [Cmp 17, 9-cyclopropyl-8-(difluoromethoxy)-7-(dimethylamino)-3-hydroxyl-4-oxo-4,9-dihydrothieno[2,3-b]quinoline-2-carbonitrile]: 4 µg/mL (≈ 10.2 µM) and 64 µg/mL (≈ 164 µM). Take `N#CCN1CCN(c2c(F)cc3c(=O)c4c(O)c(C#N)sc4n(C4CC4)c3c2OC(F)F)CC1` [Cmp 18, 7-(4-(cyanomethyl)piperazin-1-yl)-9-cyclopropyl-8-(difluoromethoxy)-6-fluoro-3-hydroxyl-4-oxo-4,9-dihydrothieno [2,3-b]quinoline-2-carbonitrile]: the figures for the MIC (in the assay on S. aureus ATCC 29213; in assay [1]) were 0.13 µg/mL (≈ 0.266 µM) and 4 µg/mL (≈ 8.17 µM), respectively.

For `COc1c(N2CCNCC2)ccc2c(=O)c3c(O)c(C#N)sc3n(C3CC3)c12` [Cmp 19, 9-cyclopropyl-3-hydroxyl-8-methoxy-4-oxo-7-(piperazin-1-yl)-4,9-dihydrothieno[2,3-b]quinoline-2-carbonitrile], the MIC is 0.25 µg/mL (≈ 0.631 µM) against S. aureus ATCC 29213 and 4 µg/mL (≈ 10.1 µM) in assay [1]. The matching figures for `COc1c(N2CCNCC2)c(F)cc2c(=O)c3c(O)c(C(=O)C(F)(F)F)sc3n(C3CC3)c12` [Cmp 20, 9-cyclopropyl-6-fluoro-3-hydroxyl-8-methoxy-7-(piperazin-1-yl)-2-(2,2,2-trifluoroacetyl)thieno[2,3-b]quinolin-4(9H)-one]: 64 µg/mL (≈ 132 µM) and greater than 64 µg/mL.

For the molecule `N#Cc1sc2c(c1O)c(=O)c1cc(F)c(N3CCNCC3)cc1n2C1CC1` [Cmp 21, 9-cyclopropyl-6-fluoro-3-hydroxyl-4-oxo-7-(piperazin-1-yl)-4,9-dihydrothieno[2,3-b]quinoline-2-carbonitrile], the MIC against S. aureus ATCC 29213 came to 0.13 µg/mL (≈ 0.338 µM); in assay [1] it was 2 µg/mL (≈ 5.2 µM). The corresponding values for `COc1c(N2CC[C@H](N)C2)c(F)cc2c(=O)c3c(O)c(C#N)sc3n(C3CC3)c12` [Cmp 22, (S)-7-(3-aminopyrrolidin-l-yl)-9-cyclopropyl-6-fluoro-3-hydroxyl-8-methoxy-4-oxo-4,9-dihydrothieno[2,3-b]quinoline-2-carbonitrile] are 0.03 µg/mL (≈ 0.0724 µM) and 0.25 µg/mL (≈ 0.603 µM). The matching figures for `COc1c(N2CC[C@H](O)C2)c(F)cc2c(=O)c3c(O)c(C#N)sc3n(C3CC3)c12` [Cmp 23, (S)-9-cyclopropyl-6-fluoro-3-hydroxyl-7-(3-hydroxyl-pyrrolidin-1-yl)-8-methoxy-4-oxo-4,9-dihydrothieno [2,3-b]quinoline-2-carbonitrile]: 0.03 µg/mL (≈ 0.0722 µM) and 0.5 µg/mL (≈ 1.2 µM). Turning to `COc1c(N2CC[C@H](N)C2)c(F)cc2c(=O)c3c(O)c(C#N)[nH]c3n(C3CC3)c12` [Cmp 28, (S)-7-(3-aminopyrrolidin-l-yl)-9-cyclopropyl-6-fluoro-3-hydroxyl-8-methoxy-4-oxo-4,9-dihydro-1H-pyrrolo[2,3-b]quinoline-2-carbonitrile], in the assay on S. aureus ATCC 29213, the lowest concentration to inhibit growth (MIC) was 64 µg/mL (≈ 161 µM).
